Results on 28 compounds are retold here after ChEMBL document CHEMBL1124438, “Analysis of the in vitro antiviral activity of certain ribonucleosides against parainfluenza virus using a novel computer aided receptor modeling procedure” (1989).

Holding throughout (assay type): functional
In one assay the test system is Human rhinovirus 1A. The experiment in a line: Virus rating against rhinovirus type 1A.
The test system of a further assay is Human alphaherpesvirus 2. Nature of the assay: Virus rating of against herpes simplex virus type 2.
The subject of the next assay is Human respirovirus 3. Nature of the assay: Virus rating against parainfluenza virus type 3.
The test system of another assay is Human adenovirus 2. Nature of the assay: Virus rating against adenovirus type 2.

As to `CSc1ncnc2c1ccn2[C@@H]1O[C@H](CO)[C@@H](O)[C@H]1O`, the Rating with Human rhinovirus 1A is 0.6; in the assay with Human alphaherpesvirus 2 it was 0; with Human respirovirus 3, 0.9; in the assay on Human adenovirus 2, 0.
As for `O=C1N=CN=C2C([C@@H]3O[C@H](CO)[C@@H](O)[C@H]3O)=NNC12` (stereo not given in full), the Rating came to 0.3 with Human rhinovirus 1A, 0 in the assay with Human alphaherpesvirus 2, 0.94 with Human respirovirus 3 and 0 in the assay with Human adenovirus 2.
For the compound `OC[C@H]1O[C@@H](C2=NNC3C(=S)N=CN=C23)[C@H](O)[C@@H]1O` (stereo not given in full), the Rating in the assay with Human rhinovirus 1A is on record as 0.9; with Human alphaherpesvirus 2, 0; in the assay on Human respirovirus 3, 1.1; with Human adenovirus 2, 1.
The like results for `CSc1ncnc2c([C@@H]3O[C@H](CO)[C@@H](O)[C@H]3O)n[nH]c12` were, in that order, 0, 0.3, 1.35 and 0.8.
In the case of `COc1c([C@@H]2O[C@H](CO)[C@@H](O)[C@H]2O)nn(C)c1C(N)=O`, the Rating stood at 0 with Human rhinovirus 1A, 0.3 with Human alphaherpesvirus 2, 1.65 in the assay on Human respirovirus 3 and 1 in the assay on Human adenovirus 2.
Taken in the same sequence, the figures for `NC(=O)C1NN=C([C@@H]2O[C@H](CO)[C@@H](O)[C@H]2O)C1=O` (stereo not given in full) were 0.6, 1, 1.65 and 0.
In the case of `NC(=O)c1ccnc([C@@H]2O[C@H](CO)[C@@H](O)[C@H]2O)n1`, the Rating with Human rhinovirus 1A was found to be 0; in the assay with Human alphaherpesvirus 2, 0; in the assay on Human respirovirus 3, 0.25; in the assay on Human adenovirus 2 it was 0.
On to `O=c1[nH]c(=O)c2[nH]nc([C@@H]3O[C@H](CO)[C@@H](O)[C@H]3O)c2[nH]1`, for which the Rating in the assay with Human rhinovirus 1A was 0; in the assay on Human alphaherpesvirus 2 it was 0.12; in the assay with Human respirovirus 3, 0.68; with Human adenovirus 2 it was 0.
`Nc1[nH]c(=O)nc2c([C@@H]3O[C@H](CO)[C@@H](O)[C@H]3O)n[nH]c12`: the Rating with Human rhinovirus 1A is reported as 0; in the assay on Human alphaherpesvirus 2, 0.75; in the assay on Human respirovirus 3, 1.22; in the assay on Human adenovirus 2, 0.
Consider `Cn1nc([C@@H]2O[C@H](CO)[C@@H](O)[C@H]2O)c2ncnc(N)c21`, for which the Rating was found to be 0 in the assay on Human rhinovirus 1A, 0.2 in the assay with Human alphaherpesvirus 2, 0.86 in the assay on Human respirovirus 3 and 0 in the assay with Human adenovirus 2.
In the case of `CN1C=NC(N)=C2NNC([C@@H]3O[C@H](CO)[C@@H](O)[C@H]3O)=C21`, the Rating in the assay on Human rhinovirus 1A is listed as 0; with Human alphaherpesvirus 2, 0; in the assay with Human respirovirus 3 it was 1.28; with Human adenovirus 2 it was 0.
As for `Cn1cnc2c([C@@H]3O[C@H](CO)[C@@H](O)[C@H]3O)nnc-2c1N`, the Rating was 0 in the assay on Human rhinovirus 1A, 0.88 in the assay with Human alphaherpesvirus 2, 1.16 in the assay on Human respirovirus 3 and 0 in the assay on Human adenovirus 2.
The compound `Cn1nc([C@@H]2O[C@H](CO)[C@@H](O)[C@H]2O)c2nc(=O)[nH]c(N)c21` yielded a Rating with Human respirovirus 3 of 0.88.
As for `Nc1cc2c(ncn2[C@@H]2O[C@H](CO)[C@@H](O)[C@H]2O)c(=O)[nH]1`, the Rating with Human rhinovirus 1A is 1; in the assay with Human alphaherpesvirus 2, 1.06; in the assay with Human respirovirus 3 it was 0.8; with Human adenovirus 2 it was 0.2.
The like results for `CSc1ncnc2c1ncn2[C@@H]1O[C@H](CO)[C@@H](O)[C@H]1O` were, in that order, 0.8, 1.25, 2.2 and 0.
`OC[C@H]1O[C@@H](n2ccc3c(S)ncnc32)[C@H](O)[C@@H]1O` registered a Rating in the assay on Human respirovirus 3 of 1.15.
Consider `OC[C@H]1OC(n2ncc3c(S)ncnc32)[C@H](O)[C@@H]1O` (stereo not given in full), for which the Rating in the assay on Human rhinovirus 1A is recorded as 0; with Human alphaherpesvirus 2, 0; with Human respirovirus 3, 0.7; in the assay with Human adenovirus 2 it was 0.
Turning to `CSc1ncnc2c1cnn2C1O[C@H](CO)[C@@H](O)[C@H]1O` (stereo not given in full), the Rating in the assay on Human rhinovirus 1A amounted to 0.6; with Human alphaherpesvirus 2, 0; in the assay with Human respirovirus 3 it was 1.05; with Human adenovirus 2 it was 0.
As for `Nc1nn(C2O[C@H](CO)[C@@H](O)[C@H]2O)c2nc[nH]c(=O)c12` (stereo not given in full), the Rating worked out at 0 in the assay on Human rhinovirus 1A, 0 in the assay on Human alphaherpesvirus 2, 0.28 with Human respirovirus 3 and 0 in the assay on Human adenovirus 2.
In the case of `OC[C@H]1OC(n2cc3c(O)nc(Cl)nc3n2)[C@H](O)[C@@H]1O` (stereo not given in full), the Rating in the assay with Human rhinovirus 1A is listed as 0; with Human alphaherpesvirus 2, 0; with Human respirovirus 3 it was 0.25; with Human adenovirus 2, 0.
With `Nc1nc(Cl)cc2c1ncn2C1O[C@H](CO)[C@@H](O)[C@H]1O` (stereo not given in full), the Rating is reported as 0 in the assay with Human rhinovirus 1A, 0 in the assay with Human alphaherpesvirus 2, 0.35 in the assay on Human respirovirus 3 and 0 in the assay on Human adenovirus 2.
On to `Nc1nc(Cl)nc2c1cnn2C1O[C@H](CO)[C@@H](O)[C@H]1O` (stereo not given in full), for which the Rating in the assay on Human rhinovirus 1A is 0; in the assay with Human alphaherpesvirus 2, 0; in the assay on Human respirovirus 3, 0.15; in the assay with Human adenovirus 2, 0.
For `NC(=O)c1cn(C2O[C@H](CO)[C@@H](O)[C@H]2O)[nH]c1=O` (stereo not given in full), the Rating in the assay with Human rhinovirus 1A stood at 0; in the assay on Human alphaherpesvirus 2, 0; in the assay on Human respirovirus 3, 0.15; with Human adenovirus 2 it was 0.
As to `Nc1ncnc2c([C@@H]3O[C@H](CO)[C@@H](O)[C@H]3O)[nH]nc12` [FORMYCIN], the Rating with Human rhinovirus 1A is 0.1; in the assay with Human alphaherpesvirus 2, 0.2; in the assay on Human respirovirus 3, 1.4; in the assay on Human adenovirus 2 it was 0.
As to `O=c1[nH]cnc2c1ccn2[C@@H]1O[C@H](CO)[C@@H](O)[C@H]1O` [IMMUNICILLIN H], the Rating with Human rhinovirus 1A is 0; in the assay with Human respirovirus 3, 0.08; in the assay with Human adenovirus 2, 0.
`NC(=O)c1ncn([C@@H]2O[C@H](CO)[C@@H](O)[C@H]2O)n1` [RIBAVIRIN]: the Rating is on record as 0.7 with Human rhinovirus 1A, 1.4 in the assay on Human alphaherpesvirus 2, 1.3 in the assay with Human respirovirus 3 and 0.3 in the assay on Human adenovirus 2.
On to `N=C(N)c1ncn([C@@H]2O[C@H](CO)[C@@H](O)[C@H]2O)n1` [TARIBAVIRIN], for which the Rating with Human rhinovirus 1A is reported as 0.2; in the assay on Human alphaherpesvirus 2, 0; in the assay on Human respirovirus 3, 1.2; with Human adenovirus 2 it was 0.
Consider `NC(=O)c1csc([C@@H]2O[C@H](CO)[C@@H](O)[C@H]2O)n1` [TIAZOFURIN], for which the Rating in the assay on Human rhinovirus 1A stood at 0; in the assay on Human alphaherpesvirus 2, 1.19; with Human respirovirus 3, 1.3; in the assay on Human adenovirus 2, 0.2.
